Our source for the IC50, AC50 and EC50 values is ChEMBL document CHEMBL1201862, “PubChem BioAssay data set” (2004).

The source made the active and inactive calls.

A word on the AC50: it is the concentration at which the activity in the assay is half-maximal. Usually EC50 stands for the concentration needed to bring the measured effect to its halfway point.

The target of assay [1] is Photoreceptor-specific nuclear receptor (Homo sapiens, UniProt Q9Y5X4). It is filed as functional, cell-based.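 Also: CHO-S cells with Gal4-NCOR and VP16-NR2E3 two-hybrid luciferase reporter.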
Chain of Photoreceptor-specific nuclear receptor (Q9Y5X4 whole entry, the tested form may be a part): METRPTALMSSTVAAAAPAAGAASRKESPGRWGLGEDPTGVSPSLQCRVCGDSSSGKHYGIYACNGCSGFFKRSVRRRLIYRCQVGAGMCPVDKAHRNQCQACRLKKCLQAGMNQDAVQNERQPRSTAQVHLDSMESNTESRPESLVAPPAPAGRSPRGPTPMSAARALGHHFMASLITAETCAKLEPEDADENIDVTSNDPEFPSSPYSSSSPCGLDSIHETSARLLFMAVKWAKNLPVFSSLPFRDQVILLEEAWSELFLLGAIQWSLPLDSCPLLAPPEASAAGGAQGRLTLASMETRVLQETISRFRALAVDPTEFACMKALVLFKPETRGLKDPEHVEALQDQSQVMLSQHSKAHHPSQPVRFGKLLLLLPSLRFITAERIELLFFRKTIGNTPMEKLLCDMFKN
In assay [2] the test system is HEK293. The experiment in a line: EBV LMP1 TES2 canonical NF-kB signalling blockers – cell-based, HEK293, luciferase, cherry-pick, dose response (AID 588343). Particulars: Homo sapiens. The format is functional.
For assay [3], the target named is Latent membrane protein 1 (Human herpesvirus 4 (strain B95-8), UniProt P03230). Kind of assay: LMP1 TES1 pathway selectivity over dsRED control – imaging, HEK293T, dual-color eGFP/dsRED, cherry-picks, selectivity assay for LMP1 NF-kB inhibitor project, dose response (AID 588398). It is filed as functional, cell-based.
The target of assay [4] is DNA dC->dU-editing enzyme APOBEC-3A (Homo sapiens, UniProt P31941). The experiment in a line: SAR analysis of small molecule inhibitors of APOBEC3A DNA Deaminase via a fluorescence-based single-stranded DNA deaminase assay. Particulars: read-out: IC50_Mean. The format is functional.
Chain of DNA dC->dU-editing enzyme APOBEC-3A (P31941 whole entry): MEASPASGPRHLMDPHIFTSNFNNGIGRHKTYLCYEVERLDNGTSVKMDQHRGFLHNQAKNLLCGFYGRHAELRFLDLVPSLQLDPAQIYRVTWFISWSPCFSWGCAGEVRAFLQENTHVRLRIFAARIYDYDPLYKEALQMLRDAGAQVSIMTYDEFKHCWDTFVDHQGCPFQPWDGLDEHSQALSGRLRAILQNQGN
The target of assay [5] is DNA dC->dU-editing enzyme APOBEC-3G (Homo sapiens, UniProt Q9HC16). The experiment in a line: inhibition of APOBEC3G ssDNA deamination – biochemical, fluorescence, single-stranded DNA substrate, SAR follow-up (AID 602136). It is filed as functional. Particulars: read-out: IC50_Mean.
Chain of DNA dC->dU-editing enzyme APOBEC-3G (Q9HC16 whole entry): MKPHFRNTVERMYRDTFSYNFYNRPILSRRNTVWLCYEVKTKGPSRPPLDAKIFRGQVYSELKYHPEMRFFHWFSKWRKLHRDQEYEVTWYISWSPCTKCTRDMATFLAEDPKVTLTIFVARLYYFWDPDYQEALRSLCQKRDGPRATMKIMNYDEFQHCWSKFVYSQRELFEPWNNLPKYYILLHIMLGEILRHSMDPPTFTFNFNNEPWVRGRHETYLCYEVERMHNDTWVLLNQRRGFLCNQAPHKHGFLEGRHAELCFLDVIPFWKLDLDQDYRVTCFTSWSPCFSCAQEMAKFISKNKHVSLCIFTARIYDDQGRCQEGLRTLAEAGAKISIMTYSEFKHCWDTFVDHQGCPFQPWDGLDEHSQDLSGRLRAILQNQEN
Assay [6] concerns H4. Kind of assay: Luminescence Cell-Based Dose Response HTS to Identify Activators of 5'UTR Stem-Loop Driven Prion Protein mRNA Translation in H4 Neuroglioblastoma Cells. [Related pubchem assays: 1829 (Project Summary), 1814 (Primary HTS)]. It is filed as functional. Particulars: Homo sapiens.
Assay [7] in a line: Luminescence Cell-Based Dose Response HTS to Identify Activators of Luciferase Translation or Activity in H4 […] Cells. [Related pubchem assays: 1829 (Project Summary), 1814 (Primary HTS)]. The format is functional.
The target in assay [8] is Multidrug resistance protein CDR1 (Candida albicans, UniProt P43071). Kind of assay: inhibition of Nile Red efflux via Candida CDR1 – S. cerevisiae AD1-8u, singleplex, Cherry Pick1 hits, dose response (AID 588606). It is filed as functional.
Assay [9] has as its system INS1. Kind of assay: suppression of NO production in INS-1E cells – cell-based, Griess absorbance, dry powder, set 2, dose response (AID 488868). It is filed as functional. The settings on record: Rattus norvegicus. On the technique in general: Griess reagent forms a coloured azo dye with nitrite.
The test system of assay [10] is INS1. The experiment in a line: INS-1E mitochondrial potential rescue under cytokines – cell-based, JC-1 fluorescence ratio, dry powder, dose response (AID 488931). It is filed as functional. Particulars: Rattus norvegicus.
Assay [11] relates to INS1. The experiment in a line: beta-cell survival under cytokine stress – INS-1E, ATP luminescence, dry powder, dose response (AID 488844). It is filed as functional, cell-based. Particulars: Rattus norvegicus.
The nature of assay [12]: suppression of NO production in INS-1E cells – cell-based, Griess absorbance, dry powder, set 3, dose response (AID 488870). It is filed as functional. Particulars: Rattus norvegicus.
Assay [13] has as its target T1, Fatty acid synthase (Homo sapiens, UniProt P49327). The experiment in a line: inhibition of human FAS-TE enzyme activity – biochemical, endpoint fluorescence intensity, uHTS hits, dose response (AID 624327).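 Also: fluorescence from hydrolysis of an O-methyl fluorescein acyl ester substrate by the enzyme.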 It is filed as functional.
The target in assay [14] is T1, Fatty acid synthase. Kind of assay: inhibition of human FAS-TE enzyme activity – biochemical, kinetic fluorescence intensity, dose response (AID 624326).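 Also: rate of fluorescence rise from hydrolysis of a fluorogenic O-methyl fluorescein ester substrate.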 It is filed as functional.
The target of assay [15] is Apoptotic protease-activating factor 1 (Homo sapiens, UniProt O14727). The format is functional.
Chain of Apoptotic protease-activating factor 1 (O14727 whole entry): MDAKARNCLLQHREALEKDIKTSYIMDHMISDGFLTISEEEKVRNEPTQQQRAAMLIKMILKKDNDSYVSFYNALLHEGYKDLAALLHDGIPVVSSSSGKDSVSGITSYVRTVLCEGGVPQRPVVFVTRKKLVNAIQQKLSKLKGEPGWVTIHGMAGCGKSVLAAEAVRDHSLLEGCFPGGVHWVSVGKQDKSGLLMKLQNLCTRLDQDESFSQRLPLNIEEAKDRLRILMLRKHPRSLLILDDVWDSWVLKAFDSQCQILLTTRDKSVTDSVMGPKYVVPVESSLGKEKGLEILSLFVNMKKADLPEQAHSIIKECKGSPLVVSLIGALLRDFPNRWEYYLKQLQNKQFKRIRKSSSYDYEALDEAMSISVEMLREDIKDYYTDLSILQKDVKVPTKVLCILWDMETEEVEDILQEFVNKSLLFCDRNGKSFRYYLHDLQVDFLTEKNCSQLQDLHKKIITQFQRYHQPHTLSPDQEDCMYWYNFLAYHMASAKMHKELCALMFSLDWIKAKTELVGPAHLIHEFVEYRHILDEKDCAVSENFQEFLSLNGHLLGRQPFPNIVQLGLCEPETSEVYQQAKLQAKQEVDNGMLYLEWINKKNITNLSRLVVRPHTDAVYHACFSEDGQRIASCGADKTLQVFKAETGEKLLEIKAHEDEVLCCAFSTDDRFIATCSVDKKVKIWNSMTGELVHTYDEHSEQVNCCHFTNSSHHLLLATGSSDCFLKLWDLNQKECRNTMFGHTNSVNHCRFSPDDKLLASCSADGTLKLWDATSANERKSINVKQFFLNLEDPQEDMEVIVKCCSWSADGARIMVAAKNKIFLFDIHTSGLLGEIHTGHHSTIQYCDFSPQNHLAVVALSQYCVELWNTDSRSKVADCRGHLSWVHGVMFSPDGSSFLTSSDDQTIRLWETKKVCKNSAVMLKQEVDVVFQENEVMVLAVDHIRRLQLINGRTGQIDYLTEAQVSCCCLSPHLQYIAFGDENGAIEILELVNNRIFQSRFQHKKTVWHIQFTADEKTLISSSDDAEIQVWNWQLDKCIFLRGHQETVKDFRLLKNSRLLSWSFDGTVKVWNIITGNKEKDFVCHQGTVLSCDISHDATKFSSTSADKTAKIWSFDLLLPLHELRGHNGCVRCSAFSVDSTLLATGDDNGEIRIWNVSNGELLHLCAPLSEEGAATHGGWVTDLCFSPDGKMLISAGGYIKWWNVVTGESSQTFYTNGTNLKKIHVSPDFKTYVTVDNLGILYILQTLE

T1 sequence (P49327 whole entry): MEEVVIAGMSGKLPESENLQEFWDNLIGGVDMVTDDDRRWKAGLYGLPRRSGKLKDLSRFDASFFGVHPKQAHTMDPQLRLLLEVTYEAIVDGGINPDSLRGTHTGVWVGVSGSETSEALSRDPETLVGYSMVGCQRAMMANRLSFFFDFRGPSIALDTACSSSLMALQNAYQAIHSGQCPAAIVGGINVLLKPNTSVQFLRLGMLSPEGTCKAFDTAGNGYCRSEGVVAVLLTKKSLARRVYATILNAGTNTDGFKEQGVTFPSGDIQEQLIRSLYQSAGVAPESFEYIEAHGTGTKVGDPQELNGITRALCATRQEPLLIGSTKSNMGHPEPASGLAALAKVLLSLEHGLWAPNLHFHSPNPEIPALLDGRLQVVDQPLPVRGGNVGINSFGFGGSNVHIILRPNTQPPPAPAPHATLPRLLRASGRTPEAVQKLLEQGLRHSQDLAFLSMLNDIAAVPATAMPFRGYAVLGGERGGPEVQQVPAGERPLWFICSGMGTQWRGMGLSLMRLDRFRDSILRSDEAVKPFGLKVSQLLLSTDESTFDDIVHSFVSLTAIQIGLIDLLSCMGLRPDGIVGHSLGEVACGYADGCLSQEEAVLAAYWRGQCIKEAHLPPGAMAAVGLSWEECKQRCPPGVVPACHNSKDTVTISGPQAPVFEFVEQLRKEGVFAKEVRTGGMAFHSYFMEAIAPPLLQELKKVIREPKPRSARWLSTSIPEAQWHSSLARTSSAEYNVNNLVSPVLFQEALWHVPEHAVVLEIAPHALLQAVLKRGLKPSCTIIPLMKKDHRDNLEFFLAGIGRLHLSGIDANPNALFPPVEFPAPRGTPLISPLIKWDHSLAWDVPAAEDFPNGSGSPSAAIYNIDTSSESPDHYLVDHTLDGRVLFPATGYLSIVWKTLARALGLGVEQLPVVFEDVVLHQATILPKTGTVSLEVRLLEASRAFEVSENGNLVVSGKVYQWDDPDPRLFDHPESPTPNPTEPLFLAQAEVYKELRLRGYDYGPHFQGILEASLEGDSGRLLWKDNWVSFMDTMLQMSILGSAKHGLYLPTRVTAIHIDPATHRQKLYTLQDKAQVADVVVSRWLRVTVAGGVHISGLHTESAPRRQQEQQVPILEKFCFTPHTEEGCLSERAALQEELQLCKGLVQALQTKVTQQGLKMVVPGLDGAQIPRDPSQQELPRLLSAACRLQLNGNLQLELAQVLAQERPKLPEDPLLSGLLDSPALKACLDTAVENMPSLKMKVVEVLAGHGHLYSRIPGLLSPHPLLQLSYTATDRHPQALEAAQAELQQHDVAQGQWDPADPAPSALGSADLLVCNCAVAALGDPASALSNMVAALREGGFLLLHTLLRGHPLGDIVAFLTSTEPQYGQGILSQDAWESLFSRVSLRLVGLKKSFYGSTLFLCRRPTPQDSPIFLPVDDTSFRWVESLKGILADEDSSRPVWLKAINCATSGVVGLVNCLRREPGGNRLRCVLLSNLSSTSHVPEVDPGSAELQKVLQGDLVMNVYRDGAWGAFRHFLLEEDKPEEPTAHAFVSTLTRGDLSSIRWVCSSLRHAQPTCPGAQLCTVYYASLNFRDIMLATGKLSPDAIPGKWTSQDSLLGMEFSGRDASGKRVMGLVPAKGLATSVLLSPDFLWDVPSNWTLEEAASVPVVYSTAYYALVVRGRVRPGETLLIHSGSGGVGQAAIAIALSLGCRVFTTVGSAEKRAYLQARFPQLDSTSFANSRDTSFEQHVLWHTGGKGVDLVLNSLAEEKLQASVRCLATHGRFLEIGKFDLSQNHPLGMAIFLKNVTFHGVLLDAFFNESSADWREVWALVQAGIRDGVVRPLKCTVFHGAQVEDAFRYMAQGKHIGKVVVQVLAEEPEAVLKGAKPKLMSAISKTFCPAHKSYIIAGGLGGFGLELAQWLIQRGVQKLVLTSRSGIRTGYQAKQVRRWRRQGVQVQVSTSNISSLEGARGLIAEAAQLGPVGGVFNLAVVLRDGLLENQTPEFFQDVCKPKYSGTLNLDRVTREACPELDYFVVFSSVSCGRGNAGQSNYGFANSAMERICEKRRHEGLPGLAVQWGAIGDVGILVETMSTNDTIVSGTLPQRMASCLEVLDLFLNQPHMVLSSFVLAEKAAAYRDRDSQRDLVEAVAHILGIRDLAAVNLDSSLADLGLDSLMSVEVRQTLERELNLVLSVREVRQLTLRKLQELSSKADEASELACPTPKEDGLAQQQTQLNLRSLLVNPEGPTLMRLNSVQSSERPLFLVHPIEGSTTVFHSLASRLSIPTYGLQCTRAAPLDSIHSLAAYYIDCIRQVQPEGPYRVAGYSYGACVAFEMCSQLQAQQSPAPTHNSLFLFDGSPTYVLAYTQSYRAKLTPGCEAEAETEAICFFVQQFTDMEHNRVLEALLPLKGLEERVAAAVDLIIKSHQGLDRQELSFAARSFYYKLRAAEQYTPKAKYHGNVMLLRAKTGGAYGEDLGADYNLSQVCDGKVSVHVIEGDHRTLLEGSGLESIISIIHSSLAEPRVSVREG

`S=C(NN=Cc1ccccn1)Nc1ccccn1`: the IC50 in assay [1] is 7.61 µM (active). The figures for the AC50 in assay [2] and in [3] were 21.5 µM (active) and 10.7 µM (active), respectively.
As for `O=C1NC(=S)NC(=O)C1=Cc1ccc2c(c1)CCN2Cc1ccccc1Cl`, the IC50 was 9.78 µM (active) in assay [4] and 77.5 µM (inactive) in assay [5].
`O=C(/C=C/c1ccccc1Cl)NCCc1ccccc1`: the figures for the EC50 in assay [6], in assay [7] and in assay [8] were > 120 µM (not active), 4.27 µM (active) and 0.514 µM (active), respectively.
On to `COc1ccc(S(=O)(=O)N(C)C[C@@H]2Oc3c(NC(=O)Nc4cccc5ccccc45)cccc3C(=O)N([C@@H](C)CO)C[C@H]2C)cc1F`, for which the half-maximal activity concentration (AC50) in [9] is 26.7 µM (active); in assay [10], > 195 µM (inactive); in assay [11], 23.2 µM (active); in assay [12] it was 60.8 µM (active).
As to `CC(C)c1ccc(/C=N/Nc2cc(N3CCOCC3)nc(N3CCOCC3)n2)cc1`, the IC50 is 0.752 µM (active) in assay [13], 0.379 µM (active) in assay [14] and 19.1 µM (active) in assay [15].
